# Test results reported in PubChem BioAssay AID1996.
# Details: buffer; pH 7.4; 200.0 µM
row,SMILES,solubility kinetic
1,CCNC(=O)NC(=O)C(C)OC(=O)c1cccn1C (stereo not drawn),> 40.1 µg/mL
2,Oc1ccccc1Nc1nc(-c2ccccc2O)nc2ccccc12,< 0.2 µg/mL
3,Cc1c(O)c(CN(C)C)cc2c1oc(=O)c1ccccc12,> 42.5 µg/mL
4,Cc1cccc(Cl)c1OCCN1CCCC1.O=C(O)C(=O)O,> 49.5 µg/mL
5,CCOC(=O)c1ccc(NS(=O)(=O)c2ccc3oc(=O)[nH]c3c2)cc1,> 54.4 µg/mL
6,COc1cc(S(=O)(=O)N2CCOCC2)ccc1NC(=O)COC(=O)/C=C/c1cc(OC)c(OC)c(OC)c1,4.6 µg/mL
7,CCOC(=O)NC(=S)Nc1ccc(C(C)(C)C)cc1Br,1.6 µg/mL
8,CC(C)CC(=O)NC(=S)Nc1ccc(CN2CCOCC2)cc1,> 50.3 µg/mL
9,CCNC(=O)COC(=O)Cc1ccc(Cl)cc1Cl,> 43.5 µg/mL
10,Cc1csc(NC(=O)C2CC(=O)N(Cc3ccco3)C2)n1 (stereo not drawn),> 45.8 µg/mL
11,NC(N)=NS(=O)(=O)c1ccc(NC(=S)NC(=O)c2ccccc2)cc1,3.9 µg/mL
12,CCOC(=O)Cc1ccc(NC(=O)c2cccc([N+](=O)[O-])c2)cc1,2.6 µg/mL
13,Cc1cc(C(=O)OCC(=O)Nc2ccc(F)cc2)c(C)n1C1CC1,6.2 µg/mL
14,O=[N+]([O-])c1cccc(CN2CCC(Cc3ccccc3)CC2)c1,17.3 µg/mL
15,COc1ccc2oc(N)c(C=O)c(=O)c2c1,30.8 µg/mL
16,Cc1c(C(=O)OCC(=O)N(C)Cc2ccccc2)oc2ccccc12,23.3 µg/mL
17,NC1=NC(=Nc2cccc(S(N)(=O)=O)c2)c2ccccc21,> 45.1 µg/mL
18,Nc1c(Br)cc(Br)cc1CNC1CCC(O)CC1 (stereo not drawn),> 56.7 µg/mL
19,CCN(C(=O)COC(=O)/C=C/c1ccc(F)cc1)C1CCCCC1,42.8 µg/mL
20,COc1cccc(-c2cc(C(=O)NCC3CCCO3)on2)c1 (stereo not drawn),> 45.3 µg/mL
21,CCn1c(SCC(=O)NC2CC2)nnc1-c1ccccn1,> 45.5 µg/mL
22,CCOc1ccc(OCCC(=O)Nc2ccc(F)cc2C)cc1,5 µg/mL

row,SMILES,solubility kinetic
1,Cc1ccc(CC(=O)Nc2ccc(F)c([N+](=O)[O-])c2)cc1C,4.1 µg/mL
2,Cc1cc(Nc2ccc(O)cc2)n2c(nc3ccccc32)c1C#N,0.9 µg/mL
3,Fc1ccccc1NC(=S)NCCc1cccc(Cl)c1,36.7 µg/mL
4,CC(C)N(Cc1ccccc1)S(=O)(=O)c1ccc(F)cc1,12 µg/mL
5,Cc1cc(=O)oc2cc(OCC(=O)N3c4ccccc4NC(=O)C3(C)C)ccc12,17.3 µg/mL
6,O=C(OC(C(=O)NCc1ccccc1)c1ccccc1)c1ccco1 (stereo not drawn),41.8 µg/mL
7,Cc1ccc(S(=O)(=O)N2CCN(Cc3ccco3)CC2)cc1C,13.1 µg/mL
8,O=C(O)CC(CC(=O)N1CCN(C(=O)c2ccco2)CC1)c1ccccc1 (stereo not drawn),> 55.6 µg/mL
9,Cc1ccccc1N1C(=O)c2cccc3cccc(c23)C1=O,2.5 µg/mL
10,C#CCN1CCN(c2cccc(C(F)(F)F)c2)CC1,9.8 µg/mL
11,O=C1Nc2ccc(Cl)cc2C12OCCCO2,3.2 µg/mL
12,CC1CN(Cc2cc(=O)oc3cc(O)c(Cl)cc23)CC(C)O1 (stereo not drawn),41 µg/mL
13,CC(=O)N(Nc1ccccc1)c1ccccc1,> 33.9 µg/mL
14,CC(=O)Nc1ccc(S(=O)(=O)NCC2CCCO2)cc1 (stereo not drawn),> 44.8 µg/mL
15,CN(C(=O)c1cc2ccccc2cc1O)C1CCCCC1,40.6 µg/mL
16,CCN(c1ccccc1)S(=O)(=O)c1ccc(C(=O)N2CCN(c3ccccc3)CC2)cc1,7 µg/mL
17,COc1ccc(C(=O)NCC(C)(C)CNC(=O)c2ccc(OC)cc2)cc1,11 µg/mL
18,O=C(CC(c1ccccc1)c1ccccc1)NCCOCc1ccccc1,20.1 µg/mL
19,COCCNC(=S)N1CCN(S(=O)(=O)c2ccc(Cl)s2)CC1,11.4 µg/mL
20,CC(C)(CNS(=O)(=O)c1ccc(Br)s1)N1CCOCC1,> 57.5 µg/mL
21,COc1cccc(OCCNc2ccc([N+](=O)[O-])cn2)c1,4.7 µg/mL
22,Cc1ccc(NS(=O)(=O)c2ccc(NC(=O)C3CC3)cc2)cc1C,6.9 µg/mL

row,SMILES,solubility kinetic
1,COc1ccc(Nc2oc(-c3ccc(F)cc3)nc2C#N)cc1,< 0.2 µg/mL
2,CC12CCC(C(=O)N3CCOCC3)([C@H](Br)C1=O)C2(C)C (stereo partly drawn),> 51.6 µg/mL
3,Cc1ccc(NC(=O)Cn2cc(C(=O)C3CC3)c3ccccc32)cc1,< 0.4 µg/mL
4,O=C(CCNC(=O)c1ccccc1Cl)NCc1ccco1,> 46 µg/mL
5,CCN(CC)c1nc2ccccc2n(Cc2cccc(OC)c2)c1=O,0.3 µg/mL
6,O=C(Nc1ccccc1)OCC1CCCO1 (stereo not drawn),> 33.2 µg/mL
7,O=C(Nc1ccc(Cl)c(NC(=O)c2cccs2)c1)c1ccco1,37.4 µg/mL
8,Oc1cccc(/C=C/c2ccc3cccc(O)c3n2)c1,2.3 µg/mL
9,COc1cccc(-c2nc(-c3ccccc3)c(-c3ccccc3)[nH]2)c1OCC(=O)O,> 60.1 µg/mL
10,CN(C)/C=C(\C#N)C(=O)Nc1ccc(F)c(Cl)c1,2 µg/mL
11,CC1Oc2ccccc2N(CC(=O)NC2CCCC2)C1=O (stereo not drawn),> 43.3 µg/mL
12,O=C(NC(Cc1ccccc1)C(=O)O)NC12CC3CC(CC(C3)C1)C2 (stereo not drawn),> 51.4 µg/mL
13,CC(C)N(C(C)C)S(=O)(=O)c1ccc(Cl)nc1,32.4 µg/mL
14,Cc1ccc(/C=C/C(=O)N2CCCC(C(N)=O)C2)o1 (stereo not drawn),> 39.3 µg/mL
15,O=C1CN(C(=O)NCC(=O)N2CCCC2)c2ccccc2N1,> 45.3 µg/mL
16,COc1ccc(NS(=O)(=O)c2cc(NC(=O)COc3ccc(OC)cc3)ccc2N2CCOCC2)cc1,3.4 µg/mL
17,Cc1ccc(CNc2nc(-c3cccnc3)nc3ccccc23)cc1,2.5 µg/mL
18,O=C1COc2ccc(S(=O)(=O)NCc3ccccc3)cc2N1,11.6 µg/mL
19,CNc1ccc(OC)cc1-n1cnc(-c2ccc([N+](=O)[O-])cc2)c1,0.6 µg/mL
20,NC(=O)c1ccc(NC(=O)CN2C(=O)NC3(CCCCCCC3)C2=O)cc1,> 55.9 µg/mL
21,CCCCn1c(NC(=O)c2ccco2)c(C(=O)OCC)c2nc3ccccc3nc21,4.9 µg/mL
22,CCOC(=O)c1ccc(S(=O)(=O)NC2CC2)cc1,32.4 µg/mL

# Next, values leading:
row,solubility kinetic,SMILES
1,> 41.9 µg/mL,NC(=O)CN1C(=O)NC2(CCCc3sccc32)C1=O (stereo not drawn)
2,< 0.6 µg/mL,O=C(COc1ccccc1)Nc1cc(Cl)ccc1Cl
3,> 39.5 µg/mL,O=CN1CCN(C(=O)c2cccc([N+](=O)[O-])c2)CC1
4,7.7 µg/mL,CC(C)c1ccc(NC(=O)Cn2c(=O)oc3cccnc32)cc1
5,2.8 µg/mL,CN(C)c1ccc(C(=O)OCC(=O)NC2CCCCCC2)cc1
6,> 71.2 µg/mL,CC(=O)O.O=C(NCC1CCCCN1)c1cc(OCC(F)(F)F)ccc1OCC(F)(F)F (stereo not drawn)
7,1.8 µg/mL,COc1ccc(NC(=O)Nc2c(SC)nsc2SC)cc1
8,> 46.3 µg/mL,CC1(C)CC(NC(=O)Cc2ccc(Cl)cc2)CC(C)(C)N1
9,39.2 µg/mL,O=C(NCCCCO)c1ccc2c3c(cccc13)CC2
10,> 52.1 µg/mL,CC1CCc2c(sc(NC(=O)/C=C/c3cccs3)c2C(=O)O)C1 (stereo not drawn)
11,> 41.6 µg/mL,Cc1cccc(C(=O)OCC(=O)N2CCCC2=O)c1O
12,40.8 µg/mL,CN(C(=O)c1c[nH]c(=O)cc1C(F)(F)F)c1ccc(Cl)c(Cl)c1
13,> 46.8 µg/mL,N#Cc1ccccc1NC(=O)CN1C(=O)NC2(CCCC2)C1=O
14,> 44.9 µg/mL,Cc1ccnc(SCC(=O)N2CCCc3ccccc32)n1
15,13.7 µg/mL,CCOC(OCC)c1ccc(/C=C\c2nccc(N)n2)cc1
16,1.5 µg/mL,CCOC(=O)c1oc2ccccc2c1NC(=O)c1ccco1
17,17.7 µg/mL,COc1ccc(NC(=O)O/N=C/c2ccccc2Cl)cc1
18,> 44 µg/mL,COC(=O)c1ccccc1-c1cn(C)c2ccccc2c1=O
19,> 25.7 µg/mL,CCOC(=O)C1CCCNC1=O (stereo not drawn)
20,> 58 µg/mL,CC1CC(C)CN(C(=O)c2cccc(S(=O)(=O)NCc3ccccc3)c2)C1 (stereo not drawn)
21,> 52.4 µg/mL,O=C(c1cc(Cl)ccc1Cl)N1CCN(Cc2ccccc2)CC1
22,1.2 µg/mL,NC(=O)CSc1nc(C23CC4CC(CC(C4)C2)C3)nc2ccccc12
23,30.7 µg/mL,Cc1cc(SCc2ccccc2C)nc(=O)[nH]1
24,> 53.1 µg/mL,CSC1=NCCN1C(=O)c1c(-c2c(F)cccc2Cl)noc1C
25,> 47.5 µg/mL,CC(C(=O)NC1CCCCC1)N1C(=O)C2C3C=CC(C3)C2C1=O (stereo not drawn)
26,> 36.6 µg/mL,O=C(NC1CC1)c1cc(=S)[nH]c2ccccc12

row,solubility kinetic,SMILES
1,43 µg/mL,COc1ccc(NC(=O)CN2CC(C)OC(C)C2)cc1Cl (stereo not drawn)
2,> 29.3 µg/mL,Cn1nccc1C(=O)N1CCOCC1
3,2 µg/mL,Cc1c(C(=O)Nc2nccs2)oc2ccc(Br)cc12
4,46.6 µg/mL,CCOCCCNC(=O)CN1CCN(Cc2ccc(Cl)cc2)C1=O
5,> 57.7 µg/mL,CN(Cc1cccc(F)c1)C(=O)C1CC(=O)N(c2ccc3c(c2)OCCO3)C1 (stereo not drawn)
6,14.4 µg/mL,Cc1ccc(S(=O)(=O)NCCOc2cc(C)ccc2C)cc1
7,1.3 µg/mL,N#Cc1ccc(/C=C\c2nccc3c2[nH]c2ccccc23)cc1
8,35.4 µg/mL,Cc1ccccc1N1C(=O)Cc2ccccc2C1=O
9,2.1 µg/mL,CC(C)(C)c1csc(NC(=O)CCc2ccccc2)n1
10,18.1 µg/mL,CCc1ccc(S(=O)(=O)Nc2ccc(Br)cn2)cc1
11,> 29 µg/mL,CC1CCN(c2ccc(C=O)o2)CC1
12,52 µg/mL,CCOC(=O)C1=C(O)C(=O)N(c2ccccc2)C1c1cccc([N+](=O)[O-])c1 (stereo not drawn)
13,> 44.3 µg/mL,O=C(NCCc1ccc(Cl)cc1Cl)c1cccnc1
14,0.7 µg/mL,c1ccc(-c2nc(NCc3cccs3)c3ccccc3n2)cc1
15,< 0.3 µg/mL,CCCc1cc(C(=O)Nc2ccc(OC)cc2[N+](=O)[O-])cs1
16,> 38.1 µg/mL,CC(C)Cn1c(S(=O)(=O)O)nc2ccccc21
17,39.6 µg/mL,COc1cc(OC)cc(C(=O)NCC(C)NC(=O)c2cc(OC)cc(OC)c2)c1 (stereo not drawn)
18,> 42.9 µg/mL,NS(=O)(=O)c1ccc(NC(=O)CCCC(=O)O)cc1
19,4.2 µg/mL,CCOc1ccc(NC(=S)N2CCC(NC(=O)c3ccccc3)CC2)cc1
20,> 43.4 µg/mL,CCOC(=O)C1CCN(c2ncnc3c2cnn3C)CC1
21,> 50.3 µg/mL,CC1CCCN(c2cc(N(C)CCO)c([N+](=O)[O-])c3nonc23)C1 (stereo not drawn)
22,43.6 µg/mL,CS(=O)(=O)Nc1ccc(-c2cn3c(n2)SCC3)cc1
23,2.2 µg/mL,Cc1ccc(NC(=O)C/C(N)=N/OC(=O)c2ccccc2)cc1
24,36.3 µg/mL,Cc1ccc(CNCCCSc2ncccn2)cc1
25,1.1 µg/mL,Cc1ccc(-c2nc(-c3ccncc3)no2)cc1
26,13.2 µg/mL,CC(C)C(=O)N=c1sc2cccc(F)c2n1C
